Experimental data: patent US7754716B2, “Combination comprising a vasculostatic compound and an alkylating agent for the treatment of a tumor” (Novartis AG, priority 2002, dated 2010)

Test system: recurrent glioblastoma
Experiment: Treatment of a patient with recurrent glioblastoma with temozolomide plus PTK787
Type: in vivo, human
Conditions: one patient with histologically confirmed recurrent glioblastoma; temozolomide 50 mg/m^2 daily for 5 consecutive days every 28 days in addition to continuous daily dose of 1000 mg PTK787; observed during the third cycle
Method: Suitable clinical studies are, for example, randomized, double-blind, placebo-controlled, parallel studies in patients with recurrent glioblastoma, but also dose escalation studies. […] Tumor assessment in the form of dynamic contrast-enhanced MRI is also a suitable approach to determine the effect of the COMBINATION OF THE INVENTION. In a suitable study design, patients are receiving, for example, temozolomide in a dosage of 50 to 250 mg/m^2 daily, for example, 200 mg/m^2 daily, for 5 consecutive days every 28 days or placebo in addition to a continuous daily dose of 500 to 2000 mg of a compound of formula I, e.g., 500, 1000, 1500 or 2000 mg of PTK787 or placebo.

## Clc1ccc(Nc2nnc(Cc3ccncc3)c3ccccc23)cc1 [PTK787]
  disease status observed under treatment: stable disease
